Here are results for one molecule from PMC12298827, “Subchronic Toxicities of Four Per- and Polyfluoroalkyl Substances (PFASs) by Oral Exposure in Sprague–Dawley Rats” (Toxics, 2025).

For one data set, the system named is male SD rats. The data set can be described thus: Single-dose tolerability study, oral gavage. Format: in vivo, rat. The settings on record: single oral dose in corn oil, n = 3/dose. The method, then:
Tolerability, 14-day dose-range-finding, and 90-day subchronic toxicity studies were conducted at Inotiv (Gaithersburg, MD, USA), monitored by the Research Triangle Institute (RTI) (Durham, NC, USA) and sponsored and funded by the EPA. Tolerability studies used four PFAS dose levels plus a control, with the high doses not to exceed 1000 mg/kg (subject to solubility in corn oil, dose volume of 5 or 10 mL/kg) and lower doses separated by threefold spacing. The dose levels for PFHI, MHFPK, and CTFPA were […]. The dose levels for PFNAC were 0, 25, 75, 225, and 667 mg/kg. Tolerability was studied using male rats (n = 3 rats/group) that received a single dose by oral gavage. The rats were euthanized at 48 hours post dosing. The data collected were bodyweight (BW) and BW changes (BWCs), feed consumption (FC) and water consumption (WC), cage-side observations, and physical exams; no necropsies were performed.

The next data set has as its system male and female SD rats. The data set can be described thus: 14-day dose-range-finding oral gavage study. The settings on record: both sexes, all doses. Format: in vivo, rat. As to the method:
Dose-range-finding (14-day) studies were conducted using male and female rats to establish dose levels for 90-day studies and identify potential target organ toxicities. Male and female rats (n = 5 sex/group, a control and three dose groups, corn oil vehicle dose volume of 5 mL/kg) were administered PFASs by oral gavage daily for 14 days and euthanized on study day (SD) 15. The dose levels for PFHI, CTFPA, and MHFPK were 0, 30, 100, and 300 mg/kg-day. The dose levels for PFNAC were 0, 10, 30, and 100 mg/kg-day. The in vivo data collected included BW, BWCs, FC, cage-side observations, and physical exams. Gross necropsies, relative and absolute organ weights, and clinical chemistry data were collected for all the groups. Macroscopic and microscopic pathology examinations were conducted for the control and high-dose groups initially; the other groups were examined if justified by experimental findings. Plasma samples were analyzed ~2 h post dosing on day 1 and at day 15 for the parent PFAS chemical.
Neurotoxicity was evaluated using the functional observational battery (FOB) and measuring locomotor activity (LMA) 2–4 h post dosing on SDs 78–80 and 80–84, respectively. For both the 14- and 90-day studies, an ophthalmologic examination was conducted prior to randomization and near the end of the study, using indirect ophthalmoscopy and slit–lamp biomicroscopy (as needed) after the administration of a mydriatic solution.
Hematology, biochemistry, and coagulation endpoints were measured at the termination of the study. A Siemens Advia 2120i hematology analyzer (Siemens Healthineers, Erlangen, Germany) was used to measure (or calculate) the parameters related to the complete blood count, leukocyte differential count, and reticulocyte count. The hematology parameters are listed and described in Table 2. The prothrombin time […] and activated partial thromboplastin time (APTT) were measured using an Instrumentation Laboratory (Bedford, MA, USA) ACL Elite Pro coagulation analyzer (laser–nephelometric centrifugal method).
At necropsy, the rats were visually examined for external abnormalities and organ weights (absolute and relative to the BW and brain weight), which were recorded (paired organs weighed together). The tissues were preserved in 10% neutral buffered formalin (NBF), except for the ocular tissues, testes, and epididymides, which were preserved in modified Davidson’s fixative and later transferred to 10% NBF. Bone marrow smears were prepared from the femurs, and the slides were air-dried, fixed in methanol, stained, and stored at room temperature for possible future evaluation. The preserved tissues were embedded in paraffin, sectioned, stained with hematoxylin and eosin, and examined by a board-certified veterinary pathologist.

A short description of data set [1]: Parent chemical in rat plasma, 90-day study. The format is in vivo. The settings on record: for concentration at 91 day: Sprague-Dawley, rat, plasma, oral. As to the method:
Subchronic (90-day) studies were performed in accordance with current U.S. EPA’s Toxic Substances Control Act Good Laboratory Practice (GLP) Standards, with the following two general exceptions to the GLP guidelines: Analysis of the dose formulations was conducted according to RTI-approved Standard Operating Procedures, and corn oil (the vehicle) was not characterized (certificate of analysis from the vendor is available in the appendices to the final reports). Male and female Sprague–Dawley rats (five dose levels plus a control, n = 10/sex/dose group, corn oil vehicle dose volume of 3 mL/kg; oral gavage) were used in these studies, and the rats were euthanized on SD 91. The dose levels for PFHI were 0, 12.5, 25, 50, 100, and 200 mg/kg-day. The dose levels for MHFPK were 0, 18.8, 37.5, 75, 150, and 300 mg/kg-day. The dose levels for PFNAC were 0, 0.1, 0.3, 1.0, 3.0, and 10 mg/kg-day for male rats and 0, 0.3, 1.0, 3.0, 10, and 30 mg/kg-day for female rats. For CTFPA, the dose levels were 0, 1.9, 3.8. 7.5, 15, and 30 mg/kg-day for male rats and 0, 6.3, 12.5, 25, 50, and 100 mg/kg-day for female rats. For each PFAS, three batches of dosing solution were prepared. The time between the batch preparation of the dosing solutions ranged between 29 and 39 days. Blood samples were collected from all the rats at termination for serum chemistry, hematology, coagulation, and the analysis of the parent PFAS chemical in the plasma. In vivo data collection and further detail on the endpoints examined postmortem are described below.
On SD 1 of the 14-day study (~2 h post dosing), 0.2 mL of blood was collected via tail vein puncture in tubes containing K3EDTA and stored on wet ice. Prior to the scheduled euthanasia, blood (~1 mL) was collected from the jugular vein in tubes containing K3EDTA and stored on wet ice on SD 15, for the 14-day study, and SD 91, for the 90-day study. All the tubes were centrifuged at an ~1500 relative centrifugal force within 1 h of collection for 15 min at 5 ± 3 °C. The plasma was stored at −75 ± 15 °C until the analysis. PFNAC and PFHI were analyzed using a headspace GC–mass spectrometry (MS) method, as summarized in Table S3, and CTFPA was analyzed using an ultra-HPLC-MS method, as summarized in Table S4. The MHFPK samples were not analyzed because a method suitable for plasma was not available. The details concerning the preparation of the samples, method blanks, and matrix and QC standards for the analysis are available in the appendices to the study reports.

The structures appear in SMILES notation.

Regarding `FC(F)(F)C(F)(F)C(F)(F)C(F)(F)CCI` [PFHI, 1H,1H,2H,2H-Perfluorohexyl iodide], the Summary of observations result with male SD rats is “No mortality and no abnormal clinical observations, no effect on bodyweight; some bodyweight changes in high-dose group were considered as chemical-related”. Further, in the data set on male and female SD rats, the “Bodyweight and bodyweight gain” value is “No changes”; the Clinical chemistry result is “Mild increases in cholesterol levels in both sexes at 300 mg/kg-day and mild increases in glucose in males only at ≥100 mg/kg-day; from minimal to moderate increases in phosphorus in both sexes in all the dose groups”; the Clinical observations result is “None”; the Coagulation endpoints result was “No effects”. In the data set on male and female SD rats, the Feed consumption result is on record as “Females: dose-dependent increase, not correlated with bodyweight changes; Males: no effects”; the Gross lesions result is recorded as “None”; the Hematology entry was “Decreased red cell mass at 300 mg/kg-day in females and all the dose levels in males; minimal increases in absolute reticulocyte concentrations and from minimal to mild increases in MPV in both sexes at all the dose levels”; the Histopathology result is “Mild liver hypertrophy in 4/5 males at 300 mg/kg-day and in 1/5 at 100 mg/kg-day; none in females”. Moreover, in the data set with male and female SD rats, the Morbidity and mortality result is “None”; the Ophthalmology entry is reported as “No ocular lesions”; the Organ weight changes result is “Increases in absolute and relative liver weights in males at 300 mg/kg-day and increases in liver weight/bodyweight ratio at ≥100 mg/kg-day; no changes in females”. Also, in data set [1] (female, Day 91, 50 mg/kg-day), the concentration at 91 day was determined as 0.0122 ± 0.00991 µg/mL. In addition, the concentration at 91 day in data set [1] (female, Day 91, 100 mg/kg-day) was 0.0483 ± 0.0229 µg/mL. In data set [1] (female, Day 91, 200 mg/kg-day), the concentration at 91 day was 0.0767 ± 0.0241 µg/mL. Further, the concentration at 91 day in data set [1] (male, Day 91, 200 mg/kg-day) came out at 0.0524 ± 0.0241 µg/mL. Also, the “Parent chemical in plasma” value in data set [1] (female, Day 91, 12.5 mg/kg-day) is on record as “BLOD (below the limit of detection—1.7 ng/mL)”. The “Parent chemical in plasma” value in data set [1] (female, Day 91, 25 mg/kg-day) is listed as “<BLOD/≤LOQ”. Also, the “Parent chemical in plasma” value in data set [1] (male, Day 91, 12.5 mg/kg-day) is reported as “BLOD (below the limit of detection—1.7 ng/mL)”. Besides, in data set [1] (male, Day 91, 25 mg/kg-day), the “Parent chemical in plasma” value was “<BLOD/≤LOQ”. Besides, the “Parent chemical in plasma” value in data set [1] (male, Day 91, 50 mg/kg-day) stood at 14.0 ± 6.21 ng/mL. In addition, the “Parent chemical in plasma” value in data set [1] (male, Day 91, 100 mg/kg-day) worked out at 43.8 ± 7.53 ng/mL.
